Five compounds from ChEMBL document CHEMBL4808181, “Hydrophobic Pocket Occupation Design of Difluoro-Biphenyl-Diarylpyrimidines as Non-Nucleoside HIV-1 Reverse Transcriptase Inhibitors: from N-Alkylation to Methyl Hopping on the Pyrimidine Ring” (J Med Chem, 2021) can be followed below.

A short description of data set [1]: Metabolic stability in human liver microsomes. The data set is classed as ADME, Microsome.
Data set [2] can be described thus: Selectivity index, ratio of CC50 for cytotoxicity against human MT-4 cells to EC50 for inhibition of HIV-1 p66/51 reverse transcriptase L100I mutant. The data set is classed as toxicity, cell-based. Conditions: read-out: Ratio CC50/EC50.
Data set [3] can be described thus: Inhibition of HIV-1 p66/p51 reverse transcriptase E138K mutant incubated for 40 mins by picogreen dye-based spectrofluorometric analysis. The arrangement: species or system Human immunodeficiency virus 1.
Data set [4] can be described thus: Selectivity index, ratio of CC50 for cytotoxicity against human MT-4 cells to EC50 for inhibition of HIV-1 p66/51 reverse transcriptase E138K mutant. The data set is classed as toxicity, cell-based. The conditions noted are these: read-out: Ratio CC50/EC50.
Data set [5] concerns Human immunodeficiency virus 1. Put plainly: Antiviral activity against HIV-1 infected in human MT-4 cells assessed as reduction in virus-induced cytopathic effect incubated for 5 days by MTT assay. The data set is classed as functional, organism-based. The conditions noted are these: Human immunodeficiency virus 1, MT4, 120 h.
A short description of data set [6]: Inhibition of HIV-1 p66/p51 reverse transcriptase Y188L mutant incubated for 40 mins by picogreen dye-based spectrofluorometric analysis. Details: species or system Human immunodeficiency virus 1.
Data set [7] in a line: Selectivity index, ratio of CC50 for cytotoxicity against human MT-4 cells to EC50 for inhibition of HIV-1 p66/51 reverse transcriptase Y188L mutant. The data set is classed as toxicity, cell-based. The conditions noted are these: read-out: Ratio CC50/EC50.
Data set [8] deals with Human immunodeficiency virus type 1 reverse transcriptase (Human immunodeficiency virus 1, UniProt Q72547, K103N). Briefly: Inhibition of HIV-1 p66/p51 reverse transcriptase K103N mutant incubated for 40 mins by picogreen dye-based spectrofluorometric analysis.
Data set [9] can be described thus: Selectivity index, ratio of CC50 for human MT-4 cells to EC50 for HIV-1 infected in MT-4 cells. The data set is classed as toxicity, cell-based. Conditions: read-out: Ratio CC50/EC50.
The nature of data set [10]: Selectivity index, ratio of CC50 for cytotoxicity against human MT-4 cells to EC50 for inhibition of HIV-1 p66/51 reverse transcriptase Y181C mutant. The data set is classed as toxicity, cell-based. The conditions noted are these: read-out: Ratio CC50/EC50.
Data set [11] has as its target Human immunodeficiency virus type 1 reverse transcriptase (Human immunodeficiency virus 1, UniProt Q72547, L100I). Put plainly: Inhibition of HIV-1 p66/p51 reverse transcriptase L100I mutant incubated for 40 mins by picogreen dye-based spectrofluorometric analysis.
The target of data set [12] is Human immunodeficiency virus type 1 reverse transcriptase (Human immunodeficiency virus 1, UniProt Q72547). Briefly: Inhibition of recombinant wild type p66/p51 HIV1 reverse transcriptase incubated for 40 mins by picogreen dye-based spectrofluorometric analysis.
Data set [13] in a line: Cytotoxicity against in human MT-4 cells after 5 days by MTT assay. The data set is classed as cell-based, MT4. The conditions noted are these: time 5 day. In general terms: Formazan colour is commonly taken as a measure of viable cells.
Data set [14] addresses Human immunodeficiency virus type 1 reverse transcriptase (Human immunodeficiency virus 1, UniProt Q72547, Y181C). Briefly: Inhibition of HIV-1 p66/p51 reverse transcriptase Y181C mutant incubated for 40 mins by picogreen dye-based spectrofluorometric analysis.
A short description of data set [15]: Selectivity index, ratio of CC50 for cytotoxicity against human MT-4 cells to EC50 for inhibition of HIV-1 p66/51 reverse transcriptase K103N mutant. The data set is classed as toxicity, cell-based. The conditions noted are these: read-out: Ratio CC50/EC50.

In [1], `Cc1cc(-c2ccc(C#N)cc2)cc(C)c1Nc1ccnc(Nc2ccc(C#N)cc2)n1` had a k el of 0.000783 s⁻¹.

As for `CC(=O)N(c1ccnc(Nc2ccc(C#N)cc2)n1)c1c(F)cc(-c2ccc(C#N)cc2)cc1F`, the selectivity ratio is above 4140 in data set [2]; above 29100 in data set [4]; above 490 in data set [7]; above 34700 in [9]; above 9800 in data set [10]; above 24500 in data set [15]. For the same compound, the EC50 in data set [3] was determined as 9.23 nM; in data set [5], 8 nM; in data set [6], 548 nM; in data set [8], 10.9 nM; in data set [11], 64.8 nM; in data set [14], 27.4 nM. Further, in data set [12], the IC50 amounted to 40 nM. Further, the 50% cytotoxic concentration (CC50) at 120 h in data set [13] is above 268 µM.

As to `CCCN(c1ccnc(Nc2ccc(C#N)cc2)n1)c1c(F)cc(-c2ccc(C#N)cc2)cc1F`, the selectivity ratio was 2240 in data set [2]; 6090 in [4]; 114 in [7]; 11300 in data set [9]; 3090 in data set [10]; 1960 in data set [15]. Moreover, the EC50 in data set [3] was determined as 34.9 nM; in data set [5] it was 19 nM; in data set [6], 1860 nM; in [8], 108 nM; in data set [11] it was 95 nM; in [14], 69 nM. In addition, the 50% inhibitory concentration (IC50) in [12] turned out to be 41 nM. In data set [13], this compound registered a CC50 at 120 h of 212 µM.

As for `N#Cc1ccc(Nc2nccc(N(CCCO)c3c(F)cc(-c4ccc(C#N)cc4)cc3F)n2)cc1`, the selectivity ratio in data set [2] came to 1670; in data set [4] it was 3110; in data set [7], 84; in data set [9], 10300; in data set [10] it was 1980; in [15], 1270. The EC50 was 21.9 nM in [3]; 7 nM in data set [5]; 813 nM in [6]; 53.4 nM in [8]; 40.9 nM in data set [11]; 34.4 nM in data set [14]. Further, the IC50 in data set [12] was 30 nM. This compound showed a CC50 at 120 h in data set [13] of 68 µM.

As for `CCS(=O)(=O)N(c1ccnc(Nc2ccc(C#N)cc2)n1)c1c(F)cc(-c2ccc(C#N)cc2)cc1F`, the selectivity ratio in [2] was above 1230; in data set [4] it was above 3460; in data set [7] it was above 52; in [9], above 5140; in data set [10] it was above 2110; in data set [15], above 3090. Besides, the EC50 was found to be 70 nM in data set [3]; 47 nM in data set [5]; 4680 nM in data set [6]; 78 nM in data set [8]; 196 nM in data set [11]; 114 nM in [14]. In addition, the IC50 in data set [12] came out at 200 nM. The CC50 at 120 h in [13] was above 125 µM.

As a reminder, the EC50 is the concentration needed to bring the measured effect to its halfway point. As a reminder, the IC50 is the concentration needed to halve the response being measured. As usually defined, the CC50 is the concentration at which the toxic effect on the cells reaches its halfway point. Low values mean harm at low concentration, high ones better tolerance by the cells.
